# Data from patent US7906520B2, “Methods for treating pain” (The General Hospital Corporation, priority 2003, dated 2011).
# Tests used:
# [1] = test system: CFA-induced paw inflammation; experiment: CFA model of inflammatory pain: Hargreaves test and paw weight; format: in vivo, rat; settings: NAS 50 mg/kg i.p.
# Procedure: FIGS. 11A-11E are a series of graphs showing the effect of DHAP on thermal hyperalgesia in the CFA model which is a model for inflammatory pain. […] On the left end of the graph, two doses of DAHP (180 mg/kg i.p.) were injected, the first 30 minutes before injection of CFA into the hindpaw, the second 4 hours after CFA (indicated with arrows D1 and D2). On the right, a single dose (dotted arrow D1) of DAHP (180 mg/kg i.p.) was injected 24 h after induction of paw inflammation without any treatment during the first 24 h following CFA injection. […] In FIGS. 11C-11D, the effects of systemically administered DAHP (180 mg/kg i.p. single dose; 11C) are compared with the effects of a single intrathecal dose (1 mg/kg i.t.; 11D) which was administered via a lumbar spinal catheter. In both cases, treatment was started 24 hours after CFA injection into the hindpaw. Because of slightly different baseline levels (11C compared with 11D) effects of DAHP after i.p. and i.t. treatment are additionally presented as percentage change of paw withdrawal latency (FIG. 11E) to allow for a direct comparison of both routes of administration.
# FIG. 12 is a bar graph showing the increase of the paw weight of the inflamed paw compared with the contralateral paw. Paw weight was determined 48 hours following CFA injection. The increase of the paw weight is a measure for the inflammatory paw edema and therefore allows assessment of paw inflammation.
# FIGS. 15A and 15B show the effect of the sepiapterin reductase inhibitor, N-acetyl-serotonin (NAS) on thermal hyperalgesia in the CFA model. The paw withdrawal latency (PWL) to radiant heat (Hargreaves test) is a measure for the heat sensitivity. NAS treatment (single dose of 50 mg/kg i.p.) was started 24 hours after CFA injection into the hindpaw. Data are presented as percentage change of the PWL compared with the PWL of the non-inflamed contralateral paw. […] Paw weight was determined 48 hours following CFA injection. The increase of the paw weight is a measure for the inflammatory paw edema.
# Hypersensitivity was induced using the CFA model of paw inflammation. In these experiments, BH4 was injected at time “zero” after measurement of baseline paw withdrawal latency.
# [2] = test system: sepiapterin reductase; settings: cited from earlier work
# [3] = test system: SNI model of neuropathic pain; experiment: Spared nerve injury (SNI) model of neuropathic pain, von Frey and acetone tests; format: in vivo
# Procedure: FIGS. 8A-8D represent a series of graphs showing the effect of DAHP on nociceptive behavior in the SNI model of neuropathic pain. Figures on the left show the threshold to mechanical stimuli applied with von Frey hairs (von Frey threshold). Figures on the right show the duration of paw licking, shaking and lifting following acetone application to the paw as a measure for cold allodynia. In FIG. 8A, rats were treated with DAHP (180 mg/kg/d i.p.) for three days starting three days after surgery (early treatment). Nociceptive behavior was assessed daily before and after drug injection. In FIG. 8B, the treatment period was extended to five days (180 mg/kg/d i.p.) starting three days after surgery and pain behavior was assessed daily before and after drug injection and once every second day for an additional week after stopping the daily drug injections. In FIG. 8C, treatment with DAHP (180 mg/kg/d i.p. for 5 days) was started 17 days after surgery i.e. in the chronic phase without any treatment in the early phase. Nociceptive behavior was assessed once daily 3 h after drug injection. In FIG. 8D, animals received a continuous spinal infusion of DAHP (6 mg/kg/d) for 14 days. The infusion was started directly after surgery. Nociceptive behavior was assessed once daily.
# FIGS. 16A-16D show the effects of systemic (16A) and intrathecal (16B) treatment with methotrexate (MTX) on the nociceptive behavior in the SNI model of neuropathic pain. […] In FIG. 16A MTX (0.2 mg/kg/d) was injected i.p. once daily starting 5 days after SNI surgery. Nociceptive behavior was assessed once daily three hours after drug injection. In FIG. 16B, MTX was administered as continuous intrathecal infusion (0.1 mg/kg/d for 14 days) starting right after SNI surgery. Nociceptive behavior was assessed once daily. FIGS. 16C and 16D show the body weight gain of animals during systemic (16C) and intrathecal (16D) MTX treatment. Determination of the weight gain was used to assess general well-being and potential toxic effects of MTX.
# In this graph, closed triangles represent vehicle, i.p.; open triangles represent DAHP at 90 mg/kg/day, i.p.; open squares represent DAHP at 180 mg/kg/day, i.p.; and open circles represent DAHP at 270 mg/kg/day, i.p.
# All procedures were performed in accordance with Massachusetts General Hospital animal care regulations. Adult male Sprague Dawley rats (200-300 g) were anesthetized with halothane. For the sciatic nerve transection (axotomy), the left sciatic nerve was exposed at the mid thigh level, ligated with 3/0 silk, and sectioned distally. The wound was sutured in two layers, and the animals were allowed to recover. For SNI the tibial and peroneal branch of the sciatic nerve were ligated and transected whereas the sural nerve was spared. For CCI, the sciatic nerve was loosely ligated with dexon 4/0 (three ligatures) and for the spinal ligation model the L5 spinal segmental nerve was ligated.
# [4] = systemically administered, low doses; cited from earlier work
# [5] = test system: GTP cyclohydrolase I; settings: cited from earlier work; for potency as GTP cyclohydrolase I inhibitor relative to oxidized pterins: more potent than oxidized pterins; for Ki: read-out: Ki, noncompetitive inhibitor of GTP cyclohydrolase I
# [6] = test system: SNI model; experiment: SNI model, L-NAME versus DAHP; format: in vivo
# Procedure: In this figure, closed circles represent nNOS knockout mice with DAHP; open circles, nNOS knock out mice with vehicle; closed triangles, wild type mice with DAHP; and open triangles, wild type mice with vehicle. […] In this figure, closed triangles represent L-NAME administration; open circles, L-NAME+DAHP administration; closed circles, DAHP administration; and open triangles, vehicle administration. L-NAME was administered at 25 mg/kg, i.p., single dose, and DAHP was administered at 120 mg/kg, i.p., single dose. The antinociceptive efficacy of this high L-NAME dose is weaker (about 50%) than that of a moderate dose of DAHP.
smiles,measurement,setting,value
"CC(=O)NCCc1c[nH]c2ccc(O)cc12 [NAS, N-acetyl-serotonin]",CFA-induced inflammatory paw edema,[1],no effect
same,thermal hyperalgesia,[1]; 24 hours after CFA,reduction of thermal hyperalgesia
O=C(CCl)NCCc1c[nH]c2ccc(O)cc12 [N-Chloroacetylserotonin],potency as sepiapterin reductase inhibitor relative to NAS,[2],increased potency
CN(Cc1cnc2nc(N)nc(N)c2n1)c1ccc(C(=O)N[C@@H](CCC(=O)O)C(=O)O)cc1 [methotrexate],pain in response to mechanical and cold allodynia,[3]; MTX 0.2 mg/kg/d i.p. or 0.1 mg/kg/day continuous lumbar spinal delivery,reduction in pain
same,acute toxicity (body weight change over time),[3]; MTX systemic or intrathecal,absence of detectable acute toxicity
same,blood brain barrier penetration,[4],does not penetrate the blood brain barrier
O=C(CCl)NCCc1ccc(O)c(O)c1 [N-Chloroacetyldopamine],potency as sepiapterin reductase inhibitor relative to NAS,[2],increased potency
Nc1nc2nc[nH]c2c(=O)[nH]1 [guanine],GTPCH inhibitory potency relative to DAHP,[5]; higher potency than DAHP,approximately 10 fold
C[C@H](O)C(=O)C1=Nc2c(nc(N)[nH]c2=O)NC1 [L-Sepiapterin],potency as GTP cyclohydrolase I inhibitor relative to oxidized pterins,[5],12 times
same,IC50,"[5]; read-out: IC50, GTP cyclohydrolase I inhibitor",12.7 ± 1.8 µM
C[C@H](O)[C@H](O)[C@H]1CNc2nc(N)[nH]c(=O)c2N1 [Tetrahydro-L-biopterin],Ki,[5],15.7 µM
"C[C@H](O)[C@H](O)C1=Nc2c(nc(N)[nH]c2=O)NC1 [7,8-dihydro-L-Biopterin]",potency as GTP cyclohydrolase I inhibitor relative to oxidized pterins,[5],approximately 12 times
same,Ki,[5],14.4 µM
COCC(=O)NCCc1c[nH]c2ccc(O)cc12 [N-Methoxyacetylserotonin],potency as sepiapterin reductase inhibitor relative to NAS,[2],increased potency
C[C@H](O)[C@H](O)[C@@H]1CNc2nc(N)[nH]c(=O)c2N1 [6S-BH4],effectiveness relative to BH4,[5]; feedback inhibition of GTPCH,more than one order of magnitude less effective
"COC(=O)[C@@H](N)CCCNC(=N)N[N+](=O)[O-] [L-NAME, N^G-Nitro-L-arginine-methyl ester]",effect of L-NAME co-injection on efficacy of DAHP,[6]; L-NAME 25 mg/kg i.p. + DAHP 120 mg/kg i.p.,does not further increase the efficacy of DAHP
same,antinociceptive efficacy relative to a moderate dose of DAHP,"[6]; L-NAME 25 mg/kg i.p. single dose, weaker than DAHP",about 50%
